Results published in publication PMC7481482, “Development of Anthraquinone Derivatives as Ectonucleoside Triphosphate Diphosphohydrolase (NTPDase) Inhibitors With Selectivity for NTPDase2 and NTPDase3” (Frontiers in Pharmacology, 2020).
Where a name gives a salt, the structure may show the parent alone.

Legend:
human NTPDase1 = molecular target: T1, human NTPDase1 (Homo sapiens, UniProt P49961); assay: Malachite green assay, human NTPDase1; type: biochemical; conditions: 2 μM compound; 50 µM ATP; COS-7 membrane preparation; read-out: % inhibition at 2 μM concentration, NTPDase1
T1 construct: expressed in transfected cells; host or cells: COS-7 cells (membrane preparation)
T1 sequence (P49961 1-510): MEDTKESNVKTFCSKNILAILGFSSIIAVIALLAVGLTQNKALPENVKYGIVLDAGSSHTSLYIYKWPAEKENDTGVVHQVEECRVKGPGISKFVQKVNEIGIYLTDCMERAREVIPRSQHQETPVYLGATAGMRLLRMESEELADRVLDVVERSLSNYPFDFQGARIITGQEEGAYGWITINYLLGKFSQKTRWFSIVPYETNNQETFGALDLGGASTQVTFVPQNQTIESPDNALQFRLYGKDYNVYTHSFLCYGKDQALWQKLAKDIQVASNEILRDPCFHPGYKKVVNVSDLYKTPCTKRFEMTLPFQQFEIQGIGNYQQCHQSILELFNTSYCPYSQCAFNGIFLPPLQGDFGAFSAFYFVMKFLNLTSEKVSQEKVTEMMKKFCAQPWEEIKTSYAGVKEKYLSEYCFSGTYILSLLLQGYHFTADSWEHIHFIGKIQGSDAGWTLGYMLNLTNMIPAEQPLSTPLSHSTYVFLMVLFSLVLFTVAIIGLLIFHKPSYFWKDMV
Procedure: (§1) Membrane preparations expressing human NTPDase1, -2, -3, or -8, respectively, were obtained as previously described ([Sévigny et al., 1997]; [Cogan et al., 1999]; [Kukulski et al., 2005]; [Lecka et al., 2013]; [Lee et al., 2018]). Enzyme inhibition assays were performed using the malachite green assay in analogy to published procedures with some modifications ([Dou et al., 2018]). The reaction buffer contained 10 mM HEPES, 2 mM CaCl2, and 1 mM MgCl2 (pH 7.4) in a final volume of 50 μL in transparent 96-well half-area plates. The compounds were initially tested at a final concentration of 2 µM using a COS-7-cell membrane preparation expressing the appropriate NTPDase isoenzyme (protein amount: 143 ng for NTPDase1, 175 ng for NTPDase2, 152 ng for NTPDase3, and 175 ng for NTPDase8). Preincubated of the enzyme preparations was perfomred at 37°C in the presence or absence of test compounds with gentle shaking (Eppendorf Thermomixer comfort at 500 rpm) for 5 min. […] ([Kukulski et al., 2005]). After 15 min of incubation at 37°C with gentle shaking, the reaction was stopped by the addition of the detection reagents (20 µL malachite green solution, 0.6 mM, and 30 µL of ammonium molybdate solution, 20 mM, in 1.5 M sulfuric acid). The released inorganic phosphate was quantified after 20 min of gentle shaking at 25°C by measuring the absorption of the malachite green-phosphomolybdate complex at 600 nm using a BMG PheraStar FS plate reader (BMG Labtech GmbH, Ortenberg, Germany). The corrected absorption was calculated by subtracting the absorption of the negative control samples, which were incubated with previously denatured enzyme (90°C, 15 min). Full concentration-inhibition curves were determined with inhibitor concentrations ranging from 0.03 to 30 µM in the presence of 2% DMSO. Inhibition-type experiments were performed with 25, 50, 100, 150 and 200 µM ATP as substrate for NTPDase2 in the presence of inhibitor 20 (0, 0.25, 0.5, and 1 µM) and 25, 50, 100 and 150 µM ATP substrate for NTPDase3 and compound 42 (0.25, 0.5, and 1 µM). For all of the presented data, at least three independent experiments were performed, and IC50 values were calculated by GraphPad Prism 8 software.
(§2) Inhibition of human NTPDases was performed using the malachite green assay, which was established on a robotic system (Z’ factors > 0.70) ([Baykov et al., 1988]; [Fiene et al., 2015]). The malachite green assay enables the detection of the phosphate produced by the enzymatic hydrolysis of nucleotides. A fixed substrate concentration of 50 µM ATP for NTPDase1 and 100 µM for NTPDase2, -3, and -8 was employed. Test compounds were initially screened at a concentration of 2 μM. […] A total of 48 synthesized anthraquinone derivatives including 14 new compounds not previously described in the literature were evaluated for their inhibitory activity at human NTPDase1, -2, -3, and -8 (for results see Table 1).

human NTPDase2 = molecular target: T2, human NTPDase2 (Homo sapiens, UniProt Q9Y5L3); assay: Malachite green assay, human NTPDase2; type: biochemical; conditions: 100 µM ATP, COS-7 membrane preparation; for inhibition at 2 µM: 2 μM compound, read-out: % inhibition at 2 μM concentration, NTPDase2
T2 construct: expressed in transfected cells; host or cells: COS-7 cells (membrane preparation)
T2 sequence (Q9Y5L3 1-495): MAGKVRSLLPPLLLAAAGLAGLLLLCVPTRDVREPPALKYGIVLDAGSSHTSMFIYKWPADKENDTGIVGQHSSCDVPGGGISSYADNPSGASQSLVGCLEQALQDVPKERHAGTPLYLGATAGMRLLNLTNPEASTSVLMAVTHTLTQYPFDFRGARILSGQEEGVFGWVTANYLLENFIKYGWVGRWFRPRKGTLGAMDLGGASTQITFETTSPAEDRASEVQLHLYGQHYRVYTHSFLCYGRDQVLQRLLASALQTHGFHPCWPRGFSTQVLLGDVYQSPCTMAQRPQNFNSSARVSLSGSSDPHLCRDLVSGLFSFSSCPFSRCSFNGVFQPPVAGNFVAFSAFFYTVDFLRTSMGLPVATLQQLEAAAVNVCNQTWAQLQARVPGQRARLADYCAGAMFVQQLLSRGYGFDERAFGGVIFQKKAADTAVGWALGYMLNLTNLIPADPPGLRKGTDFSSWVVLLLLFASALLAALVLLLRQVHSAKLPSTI
Procedure: as §1, §2

human NTPDase3 = molecular target: T3, human NTPDase3 (Homo sapiens, UniProt O75355); assay: Malachite green assay, human NTPDase3; type: biochemical; conditions: 100 µM ATP, COS-7 membrane preparation; for inhibition at 2 µM: 2 μM compound, read-out: % inhibition at 2 μM concentration, NTPDase3
T3 construct: expressed in transfected cells; host or cells: COS-7 cells (membrane preparation)
T3 sequence (O75355 1-529): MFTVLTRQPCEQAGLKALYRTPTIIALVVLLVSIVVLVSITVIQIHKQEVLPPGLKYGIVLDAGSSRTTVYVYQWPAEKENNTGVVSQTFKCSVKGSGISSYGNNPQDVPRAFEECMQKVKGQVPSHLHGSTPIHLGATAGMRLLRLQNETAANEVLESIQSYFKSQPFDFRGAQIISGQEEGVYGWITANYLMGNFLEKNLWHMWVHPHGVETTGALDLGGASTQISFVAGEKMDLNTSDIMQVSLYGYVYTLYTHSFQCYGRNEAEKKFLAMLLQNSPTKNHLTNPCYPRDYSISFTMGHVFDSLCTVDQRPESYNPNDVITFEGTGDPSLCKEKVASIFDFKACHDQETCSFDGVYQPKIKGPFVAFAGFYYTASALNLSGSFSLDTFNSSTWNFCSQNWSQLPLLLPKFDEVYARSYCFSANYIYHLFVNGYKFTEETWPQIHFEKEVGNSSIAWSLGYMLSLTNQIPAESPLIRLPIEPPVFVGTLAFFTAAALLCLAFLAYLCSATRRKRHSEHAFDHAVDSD
Procedure: as §1, §2

human NTPDase8 = molecular target: T4, human NTPDase8 (Homo sapiens, UniProt Q5MY95); assay: Malachite green assay, human NTPDase8; type: biochemical; conditions: 2 μM compound; 100 µM ATP; COS-7 membrane preparation; read-out: % inhibition at 2 μM concentration, NTPDase8
T4 construct: expressed in transfected cells; host or cells: COS-7 cells (membrane preparation)
T4 sequence (Q5MY95 1-495): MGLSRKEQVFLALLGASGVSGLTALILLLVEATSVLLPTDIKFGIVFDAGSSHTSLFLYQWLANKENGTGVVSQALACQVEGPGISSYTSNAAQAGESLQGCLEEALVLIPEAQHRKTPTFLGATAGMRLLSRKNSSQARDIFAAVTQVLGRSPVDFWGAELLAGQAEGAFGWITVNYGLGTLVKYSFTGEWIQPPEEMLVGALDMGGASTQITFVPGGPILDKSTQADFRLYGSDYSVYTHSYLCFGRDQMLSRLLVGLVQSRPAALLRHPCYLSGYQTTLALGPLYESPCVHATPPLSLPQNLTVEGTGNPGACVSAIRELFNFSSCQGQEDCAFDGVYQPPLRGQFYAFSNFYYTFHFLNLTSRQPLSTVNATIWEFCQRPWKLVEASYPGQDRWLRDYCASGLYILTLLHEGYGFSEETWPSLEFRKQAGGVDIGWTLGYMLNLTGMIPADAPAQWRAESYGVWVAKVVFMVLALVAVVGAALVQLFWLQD
Procedure: as §1, §2

Structure (SMILES) | melting point | inhibition at 2 µM (human NTPDase1) | inhibition at 2 µM (human NTPDase2) | inhibition at 2 µM (human NTPDase3) | inhibition at 2 µM (human NTPDase8) | IC50 (human NTPDase3; read-out: IC50 ± SEM, NTPDase3) | IC50 (human NTPDase2; read-out: IC50 ± SEM, NTPDase2)
Nc1c(S(=O)(=O)O)cc(Nc2ccc(Sc3ccccc3)c(Cl)c2)c2c1C(=O)c1ccccc1C2=O (as salt: sodium) [Compound 48, Sodium 1-amino-4-(3-chloro-4-phenylsulfanyl)-phenylamino-9,10-dioxo-9,10-dihydroanthracene-2-sulfonate] | > 300 °C |  |  |  |  |  | 
Nc1c(S(=O)(=O)[O-])cc(Nc2ccccc2CO)c2c1C(=O)c1ccccc1C2=O.[Na+] [Compound 27, Sodium 1-amino-4-(2-(hydroxymethyl)phenylamino)-9,10-dioxo-9,10-dihydroanthracene-2-sulfonate] | > 300 °C | -1% | 12% | 11% | 4% |  | 
Nc1c(S(=O)(=O)[O-])cc(Nc2cccc(Cl)c2Cl)c2c1C(=O)c1ccccc1C2=O.[Na+] [Compound 34, Sodium 1-amino-4-(2,3-dichlorophenylamino)-9,10-dioxo-9,10-dihydroanthracene-2-sulfonate] | > 300 °C | 1% | 16% | -2% | 7% |  | 
Nc1c(S(=O)(=O)[O-])cc(Nc2cccc(F)c2C(=O)O)c2c1C(=O)c1ccccc1C2=O.[Na+] [Compound 35, Sodium 1-amino-4-(2-carboxy-3-fluorophenylamino)-9,10-dioxo-9,10-dihydroanthracene-2-sulfonate] | > 300 °C | -21% | -3% | 32% | -10% |  | 
Nc1c(S(=O)(=O)[O-])cc(Nc2ccc(O)cc2F)c2c1C(=O)c1ccccc1C2=O.[Na+] [Compound 37, Sodium 1-amino-4-(2-fluoro-4-hydroxyphenylamino)-9,10-dioxo-9,10-dihydroanthracene-2-sulfonate] | > 300 °C | -8% | 5% | -12% | -6% |  | 
Nc1c(S(=O)(=O)[O-])cc(Nc2cccc(Sc3ccccc3)c2)c2c1C(=O)c1ccccc1C2=O.[Na+] [Compound 41, Sodium 1-amino-4-(3-(phenylsulfanyl)phenylamino)-9,10-dioxo-9,10-dihydroanthracene-2-sulfonate] | > 300 °C | 1% |  | 10% | 6% |  | 0.984 ± 0.327 µM

Now from value to molecule:

melting point | inhibition at 2 µM (human NTPDase1) | inhibition at 2 µM (human NTPDase2) | inhibition at 2 µM (human NTPDase3) | inhibition at 2 µM (human NTPDase8) | IC50 (human NTPDase3; read-out: IC50 ± SEM, NTPDase3) | IC50 (human NTPDase2; read-out: IC50 ± SEM, NTPDase2) | Structure (SMILES)
> 300 °C | 0% | 21% | 2% | 4% |  |  | Nc1c(S(=O)(=O)[O-])cc(Nc2cccc(I)c2)c2c1C(=O)c1ccccc1C2=O.[Na+] [Compound 23, Sodium 1-amino-4-(3-iodophenylamino)-9,10-dioxo-9,10-dihydroanthracene-2-sulfonate]
> 300 °C | -2% | 7% | -9% | 1% |  |  | Nc1c(S(=O)(=O)[O-])cc(Nc2cccc(CO)c2)c2c1C(=O)c1ccccc1C2=O.[Na+] [Compound 28, Sodium 1-amino-4-(3-(hydroxymethyl)phenylamino)-9,10-dioxo-9,10-dihydroanthracene-2-sulfonate]
> 300 °C | -4% | 5% | -3% | -4% |  |  | Nc1c(S(=O)(=O)[O-])cc(Nc2ccc(CO)cc2)c2c1C(=O)c1ccccc1C2=O.[Na+] [Compound 29, Sodium 1-amino-4-(4-(hydroxymethyl)phenylamino)-9,10-dioxo-9,10-dihydroanthracene-2-sulfonate]
> 300 °C | -6% | 7% |  | -11% | 1.52 ± 0.28 µM |  | Nc1c(S(=O)(=O)[O-])cc(Nc2cccc(CC(=O)O)c2)c2c1C(=O)c1ccccc1C2=O.[Na+] [Compound 30, Sodium 1-amino-4-(3-(carboxymethyl)phenylamino)-9,10-dioxo-9,10-dihydroanthracene-2-sulfonate]
